# In patent publication US8431524B2, “Peptide antagonist of interleukin-15 activity” (Centro de Ingenieria Genetica y Biotecnologia, priority 2008, dated 2013):
# Like-named read-outs stand apart in the source and are kept apart here. Positions of bridges follow the written chain, without caps; N, C: chain ends. Residues, ends and D or L forms follow the SMILES beside them. Chains are numbered I, II in the order given. No end group written: not given here.
# B1: 146B7: Genmab antibody specific for IL-15, targets the region interacting with IL-15Rγ (antibody, chains of the INN, looked up, V domains shown)
# VH: EVQLVQSGAEVKKPGESLKISCKVSGYFFTTYWIGWVRQMPGKGLEYMGIIYPGDSDTRYSPSFQGQVTISADKSISTAYLQWSSLKASDTAMYYCARGGNWNCFDYWGQGTLVTVSS
# VL: EIVLTQSPGTLSLSPGERATLSCRASQSVSSSYLAWYQQKPGQAPRLLIYGASRRATGIPDRFSGSGSGTDFTLTISRLEPEDFAVYYCQRYGSSHTFGQGTKLEIS
# Tests used:
# CTLL-2 cell line = details: for IC50: 72 h; for activity relative to the original peptide of WO2006/029578 (fold): IL-15-dependent proliferation of CTLL-2; for inhibitory effect of the peptide (in words): from the IC50 values of Table 1
# Experimental: To evaluate the neutralizing capacity of the peptides of the present invention, serial dilutions of these peptides were carried out in 96-well plates (Costar, USA) in a 25 μL volume of RPMI medium (Gibco) supplemented at 10% with calf fetal serum (Gibco). […]
# Incubation was carried out for 72 h at 37° C. and 5% CO2. […] MTT is reduced to red formazan by the mitochondrial dehydrogenase of live cells.
# KiT225 cell line = assay: IL-15-induced proliferation assay of the Kit225 cell line (MTT); assay type: cell-based, human; details: IL-15 300 pg/mL, serial dilutions of peptide; FIG. 3
# Experimental: To evaluate the neutralizing capacity of the peptides of the present invention, serial dilutions of these peptides were carried out in 96-well plates (Costar, USA) in a 25 μL volume of RPMI medium (Gibco) supplemented at 10% with calf fetal serum (Gibco). Previously washed CTLL-2 or KiT225 cells were added at 5×10^3 cells/well and incubated for 30 min, and a saturating amount of 300 pg/mL IL-15 was added per well.
# The antagonistic activity of the peptides was also evaluated, by varying the concentration of IL-15 at a fix concentration of 260 μM of each peptide. Incubation was carried out for 72 h at 37° C. and 5% CO2. Proliferation was assessed by using the MTT mitochondrial staining method (Cosman et al., Nature 1984, 312: 768-771). MTT is reduced to red formazan by the mitochondrial dehydrogenase of live cells. The IC50 was determined to each peptide at a IL-15 concentration of 300 pg/mL.
# [1] = system: skin graft from a psoriasis patient; assay: Xenotransplant SCID mice model of human psoriasis; assay type: in vivo; details: 10 mg/kg, alternate days for two weeks; for grade of parakeratosis in the psoriatic lesion / keratinocytes' cycles / number of inflammatory cells / thickness of the epidermis: H & E; for severity of the disease: biopsy one week after last injection
# Experimental: Two to three months-old SCID mice were transplanted with a skin graft of 1.5 cm×1.5 cm from a psoriasis patient. Three weeks after, mice were randomized and distributed in three groups: placebo, mice treated with peptide SEQ ID No. 12 at 10 mg/kg of body weight and cyclosporin A at 10 mg/kg in alternate days for two weeks. One week after the last injection, mice were sacrificed and a 4 mm biopsy was taken from each xenotransplant. Biopsies were fixed in formalin for paraffin embedding, and were stained with hematoxilin and eosin dyes (H & E).
# IL-15Rα subunit = IL-15Rα subunit (Homo sapiens, UniProt Q13261); details: IL-15 binding to IL-15Rα; cited from earlier work
# human IL-15Rα = human IL-15Rα (Homo sapiens, UniProt Q13261); assay: Competition ELISA, displacement of binding of IL-15 to IL-15Rα
# Experimental: Peptide binding to the IL15-Rα was characterized by ELISA. Briefly, 96-well plates were coated with purified IL-15 in phosphate buffered saline (PBS) and blocked with bovine albumin at 1% in PBS. Dilutions of each peptide were added to the wells and plates were incubated for 1 h at 37° C. The plates were washed with PBS-Tween 20 and incubated with an IL-15Rα-Fc for 1 h at 37° C. Plates were washed again with PBS-Tween 20 and further incubated an anti Fc-human IgG-peroxidase conjugate for 1 h at 37° C. After washing, the antigen-antibody reaction was run by adding the substrate and 3,3′,5,5′-Tetramethylbenzidine (TMB), and O.D. was read at 450 nm.
# [2] = system: prostate cancer cell line PC-3; assay: IL-15Rα-induced IL-6 and IL-8 mRNA expression in PC-3 cells (real time RT-PCR); assay type: cell-based; details: peptide 100 μg/mL, IL15-Rα 1 ng/mL
# Experimental: The experiment was carried out in 24-well plates by incubating 1.5×10^6 cells with peptides SEQ ID No. 1 and SEQ ID No. 12 at 100 μg/mL and IL15-Rα (1 ng/mL), and also combinations of IL15-Rα and peptides SEQ ID No. 1 and SEQ ID No. 12.
# The RNA was isolated by the TriReagent method (Sigma) and analyzed by measuring the O.D. 260/280 nm ratio and Agarose gel electrophoresis. The real time reverse transcription and polymerase chain reaction were carried out by using the Quantitect Reverse Transcription Kit and QuantiTect SYBR Green PCR (QIAGEN) in a Rotor Gene 6000 equipment.
# [3] = system: synovial fluid cells of RA patients; assay: IL-15-mediated TNFα production in synovial fluid cells of RA patients (ELISA); assay type: cell-based, human; details: peptide 50 μg/mL plus IL-15 60 ng/mL, 48 h; heading says peptide as a dimer; FIG. 6
# Experimental: After obtaining a written informed consent, synovial fluid from RA patients was extracted and incubated with hyaluronidase at 10 μg per mL of fluid for 45 min at 37° C. Synovial fluid cells were obtained after centrifugation at 1200 rpm for 10 min.
# Cells were incubated in 96-well plated at 2×10^5 cells per well with 50 μg/mL of peptide and 60 ng/mL of IL-15 and also a combination of peptide plus IL-15. After incubation for 48 h, supernatants were collected and stored at −70° C. until evaluation. The amount of TNFα was quantified by EL ISA (R&D DTA50).
# [4] = system: CTLL-2 cell line and peripheral blood mononuclear cells (PBMC); details: CTLL-2 cell line and PBMC; cited from earlier work
# Chain of human IL-15Rα (Q13261 31-205 limits assumed): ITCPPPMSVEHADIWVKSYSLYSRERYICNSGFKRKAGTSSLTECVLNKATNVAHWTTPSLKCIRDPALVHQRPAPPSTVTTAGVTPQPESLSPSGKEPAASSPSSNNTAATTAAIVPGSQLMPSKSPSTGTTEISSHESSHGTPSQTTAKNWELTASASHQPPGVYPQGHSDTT
# Chain of IL-15Rα subunit (Q13261 31-267): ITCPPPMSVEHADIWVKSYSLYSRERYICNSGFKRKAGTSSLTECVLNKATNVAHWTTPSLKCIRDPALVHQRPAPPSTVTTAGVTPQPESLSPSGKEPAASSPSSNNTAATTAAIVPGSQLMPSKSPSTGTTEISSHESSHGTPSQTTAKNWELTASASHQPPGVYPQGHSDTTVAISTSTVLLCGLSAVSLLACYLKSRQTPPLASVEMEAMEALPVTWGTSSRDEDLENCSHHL
molecule,measurement,setting,value
CSCC[C@H](NC(=O)[C@H](C)NC(=O)[C@@H](NC(=O)[C@@H](NC(=O)[C@@H](N)CCCCN)C(C)C)[C@@H](C)O)C(=O)N[C@H](C(=O)N[C@@H](CSSC[C@H](NC(=O)[C@@H](NC(=O)[C@H](CCSC)NC(=O)[C@H](C)NC(=O)[C@@H](NC(=O)[C@@H](NC(=O)[C@@H](N)CCCCN)C(C)C)[C@@H](C)O)[C@@H](C)O)C(=O)N[C@@H](Cc1ccccc1)C(=O)N[C@@H](CC(C)C)C(=O)N[C@@H](CC(C)C)C(N)=O)C(=O)N[C@@H](Cc1ccccc1)C(=O)N[C@@H](CC(C)C)C(=O)N[C@@H](CC(C)C)C(N)=O)[C@@H](C)O [SEQ ID No. 12 dimer] (I: H-KVTAMTCFLL-NH2 / II: H-KVTAMTCFLL-NH2; disulfide I:7-II:7 (inferred); N-terminus assumed),IC50,CTLL-2 cell line,8 µM
same,activity relative to the original peptide of WO2006/029578 (fold),CTLL-2 cell line,15
same,activity of the dimer relative to the monomer (fold),CTLL-2 cell line; dimer linked through the free Cys,seven times more active
same,inhibitory effect on IL-15-induced proliferation of Kit225,KiT225 cell line,higher inhibitory effect
same,grade of parakeratosis in the psoriatic lesion,[1],lowered grade
same,keratinocytes' cycles,[1],significantly decreased
same,number of inflammatory cells,[1],significantly decreased
same,thickness of the epidermis,[1],significant reduction
same,severity of the disease,[1],reduction in the severity of the disease
"IL-15: 14-15 kDa cytokine, T cell activating factor",Kd,IL-15Rα subunit,0.01 nM
KATAMKCFLL-NH2 [KATAMKCFLL],IC50,CTLL-2 cell line,130 µM
KVAAMKCFLL-NH2 [KVAAMKCFLL],IC50,CTLL-2 cell line,130 µM
KVTAAKCFLL-NH2 [KVTAAKCFLL],IC50,CTLL-2 cell line,130 µM
KVTAMECFLL,activity relative to the original peptide of WO2006/029578 (fold),CTLL-2 cell line,ten-fold
same,inhibitory effect of the peptide (in words),CTLL-2 cell line,loss of the inhibitory effect
KVTAMKAFLL,inhibitory effect of the peptide (in words),CTLL-2 cell line,loss of the inhibitory effect
same,displacement of binding of IL-15 to IL-15Rα,"human IL-15Rα; ELISA, IL-15 coated plate, IL-15Rα-Fc, FIG. 2",does not displace
KVTAMKCFAL-NH2 [KVTAMKCFAL],IC50,CTLL-2 cell line,200 µM
KVTAMKCFLA-NH2 [KVTAMKCFLA],IC50,CTLL-2 cell line,260 µM
"KVTAMKCFLL-NH2 [KVTAMKCFLL, reference compound]",IC50,CTLL-2 cell line,130 µM
KVTAMKSFLL,inhibitory effect of the peptide (in words),CTLL-2 cell line,loss of the inhibitory effect
KVTAMTCFLL-NH2 [KVTAMTCFLL],IC50,CTLL-2 cell line,24.6 µM
same,activity relative to the original peptide of WO2006/029578 (fold),CTLL-2 cell line; listed as Lys-Thr mutant,five-fold
same,antagonistic activity at varying IL-15 concentration,"CTLL-2 cell line; fixed peptide concentration 260 μM, IL-15 75, 150, 300 pg/mL, FIG. 4",dependence of the antagonistic activity
same,inhibitory effect on IL-15-induced proliferation of Kit225,KiT225 cell line,inhibitory effect depending on the concentration of the peptide
same,capacity to bind to the IL-15Rα,human IL-15Rα,retains the capacity to bind to the IL-15Rα
same,grade of parakeratosis in the psoriatic lesion,[1],lowered grade
same,keratinocytes' cycles,[1],significantly decreased
same,number of inflammatory cells,[1],significantly decreased
same,thickness of the epidermis,[1],significant reduction
same,severity of the disease,[1],reduction in the severity of the disease
same,IL15-Rα-mediated transcription of IL-8,[2]; FIG. 5A,inhibits transcription
same,IL15-Rα-mediated transcription of IL-6,[2]; FIG. 5B,inhibits transcription
same,TNFα secretion,[3],inhibits TNFα secretion
KVTAMTCYLL-NH2 [KVTAMTCYLL],IC50,CTLL-2 cell line,57.7 µM
B1,inhibition of IL-15-induced cell proliferation,[4],inhibit the IL-15-induced cell proliferation
